Source: ChEMBL document CHEMBL3769397, “A new GLP-1 analogue with prolonged glucose-lowering activity in vivo via backbone-based modification at the N-terminus” (Bioorg Med Chem, 2016)

How the values were obtained:
[1] = target: T1, DPP4 (dipeptidyl peptidase 4) (Homo sapiens, UniProt P27487); assay: Half life of compound assessed as recombinant human DPP4-mediated cleavage by RP-HPLC analysis; format: ADME
[2] = target: Glucagon-like peptide 1 receptor (Homo sapiens, UniProt P43220); assay: Activation of human GLP1R expressed in HEK293 cells preincubated for 30 mins followed by addition of cAMP-d2 conjugate/cryptate conjugate incubated for 60 mins by fluorescence analysis; format: functional, cell-based
[3] = target: T1, DPP4 (dipeptidyl peptidase 4); assay: Drug degradation assessed as recombinant human DPP4-mediated cleavage by measuring compound remaining after 8 hrs by RP-HPLC analysis; format: ADME; settings: read-out: Stability
[4] = target: T1, DPP4 (dipeptidyl peptidase 4); assay: Drug degradation assessed as recombinant human DPP4-mediated cleavage by measuring compound remaining after 12 hrs by RP-HPLC analysis; format: ADME; settings: read-out: Stability
[5] = target: T1, DPP4 (dipeptidyl peptidase 4); assay: Drug degradation assessed as recombinant human DPP4-mediated cleavage by measuring compound remaining after 1 hr by RP-HPLC analysis; format: ADME; settings: read-out: Stability
[6] = target: T1, DPP4 (dipeptidyl peptidase 4); assay: Drug degradation assessed as recombinant human DPP4-mediated cleavage by measuring compound remaining after 2 hrs by RP-HPLC analysis; format: ADME; settings: read-out: Stability
[7] = target: T1, DPP4 (dipeptidyl peptidase 4); assay: Drug degradation assessed as recombinant human DPP4-mediated cleavage by measuring compound remaining after 4 hrs by RP-HPLC analysis; format: ADME; settings: read-out: Stability
[8] = Retention time of compound over 30 mins by HPLC analysis; format: physicochemical; settings: 0.5 h
Mus musculus [9] = assay: Reduction in blood glucose in Kunming mouse assessed as blood glucose level at 25 nmol/kg, ip at administered 0 mins followed by first glucose challenge at 40 mins followed by second glucose challenge at 310 mins and measured at 40 mins by glucose tolerance test (reference value: 4.9 to 6.3 mmol/L); format: functional
Mus musculus [10] = assay: Reduction in blood glucose in Kunming mouse assessed as blood glucose level at 25 nmol/kg, ip at administered 0 mins followed by first glucose challenge at 40 mins followed by second glucose challenge at 310 mins and measured at 310 mins by glucose tolerance test (reference value: 4.9 to 6.3 mmol/L); format: functional
Mus musculus [11] = assay: Reduction in blood glucose in Kunming mouse assessed as blood glucose level at 25 nmol/kg, ip at administered 0 mins followed by first glucose challenge at 40 mins followed by second glucose challenge at 310 mins and measured at 55 mins by glucose tolerance test (reference value: 4.9 to 6.3 mmol/L); format: functional
Mus musculus [12] = assay: Reduction in blood glucose in Kunming mouse assessed as blood glucose level at 25 nmol/kg, ip at administered 0 mins followed by first glucose challenge at 40 mins followed by second glucose challenge at 310 mins and measured at 80 mins by glucose tolerance test (reference value: 4.9 to 6.3 mmol/L); format: functional
[13] = target: T1, DPP4 (dipeptidyl peptidase 4); assay: Drug degradation assessed as recombinant human DPP4-mediated cleavage by measuring compound remaining after 96 hrs by RP-HPLC analysis; format: ADME; settings: read-out: Stability
Mus musculus [14] = assay: Reduction in blood glucose in Kunming mouse assessed as blood glucose level at 25 nmol/kg, ip at administered 0 mins followed by first glucose challenge at 40 mins followed by second glucose challenge at 310 mins and measured at 115 mins by glucose tolerance test (reference value: 4.9 to 6.3 mmol/L); format: functional
[15] = target: T1, DPP4 (dipeptidyl peptidase 4); assay: Drug degradation assessed as recombinant human DPP4-mediated cleavage by measuring compound remaining after 72 hrs by RP-HPLC analysis; format: ADME; settings: read-out: Stability
[16] = target: T1, DPP4 (dipeptidyl peptidase 4); assay: Drug degradation assessed as recombinant human DPP4-mediated cleavage by measuring compound remaining after 24 hrs by RP-HPLC analysis; format: ADME; settings: read-out: Stability
[17] = target: T1, DPP4 (dipeptidyl peptidase 4); assay: Drug degradation assessed as recombinant human DPP4-mediated cleavage by measuring compound remaining after 48 hrs by RP-HPLC analysis; format: ADME; settings: read-out: Stability
Mus musculus [18] = assay: Reduction in blood glucose in Kunming mouse assessed as blood glucose level at 25 nmol/kg, ip at administered 0 mins followed by first glucose challenge at 40 mins followed by second glucose challenge at 310 mins and measured at 430 mins by glucose tolerance test (reference value: 4.9 to 6.3 mmol/L); format: functional
Mus musculus [19] = assay: Reduction in blood glucose in Kunming mouse assessed as blood glucose level at 25 nmol/kg, ip at administered 0 mins followed by first glucose challenge at 40 mins followed by second glucose challenge at 310 mins and measured at 160 mins by glucose tolerance test (reference value: 4.9 to 6.3 mmol/L); format: functional
Mus musculus [20] = assay: Reduction in blood glucose in Kunming mouse assessed as blood glucose level at 25 nmol/kg, ip at administered 0 mins followed by first glucose challenge at 40 mins followed by second glucose challenge at 310 mins and measured at 385 mins by glucose tolerance test (reference value: 4.9 to 6.3 mmol/L); format: functional
Mus musculus [21] = assay: Reduction in blood glucose in Kunming mouse assessed as blood glucose level at 25 nmol/kg, ip at administered 0 mins followed by first glucose challenge at 40 mins followed by second glucose challenge at 310 mins and measured at 350 mins by glucose tolerance test (reference value: 4.9 to 6.3 mmol/L); format: functional
Mus musculus [22] = assay: Reduction in blood glucose in Kunming mouse assessed as blood glucose level at 25 nmol/kg, ip at administered 0 mins followed by first glucose challenge at 40 mins followed by second glucose challenge at 310 mins and measured at 325 mins by glucose tolerance test (reference value: 4.9 to 6.3 mmol/L); format: functional

Glucagon-like peptide 1 receptor, sequence (P43220 whole entry): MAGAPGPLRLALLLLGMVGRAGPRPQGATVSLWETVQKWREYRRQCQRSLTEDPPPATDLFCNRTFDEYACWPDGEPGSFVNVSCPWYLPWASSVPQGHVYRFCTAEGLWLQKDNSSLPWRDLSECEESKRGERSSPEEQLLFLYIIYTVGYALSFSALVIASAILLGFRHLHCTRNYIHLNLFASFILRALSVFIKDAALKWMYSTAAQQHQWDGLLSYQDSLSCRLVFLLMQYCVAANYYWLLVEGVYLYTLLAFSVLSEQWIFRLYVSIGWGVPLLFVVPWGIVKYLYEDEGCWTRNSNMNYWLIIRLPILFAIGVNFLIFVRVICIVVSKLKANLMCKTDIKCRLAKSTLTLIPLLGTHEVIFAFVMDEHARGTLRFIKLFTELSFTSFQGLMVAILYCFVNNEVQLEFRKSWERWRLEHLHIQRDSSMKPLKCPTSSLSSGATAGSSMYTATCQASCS
T1 sequence (P27487 whole entry): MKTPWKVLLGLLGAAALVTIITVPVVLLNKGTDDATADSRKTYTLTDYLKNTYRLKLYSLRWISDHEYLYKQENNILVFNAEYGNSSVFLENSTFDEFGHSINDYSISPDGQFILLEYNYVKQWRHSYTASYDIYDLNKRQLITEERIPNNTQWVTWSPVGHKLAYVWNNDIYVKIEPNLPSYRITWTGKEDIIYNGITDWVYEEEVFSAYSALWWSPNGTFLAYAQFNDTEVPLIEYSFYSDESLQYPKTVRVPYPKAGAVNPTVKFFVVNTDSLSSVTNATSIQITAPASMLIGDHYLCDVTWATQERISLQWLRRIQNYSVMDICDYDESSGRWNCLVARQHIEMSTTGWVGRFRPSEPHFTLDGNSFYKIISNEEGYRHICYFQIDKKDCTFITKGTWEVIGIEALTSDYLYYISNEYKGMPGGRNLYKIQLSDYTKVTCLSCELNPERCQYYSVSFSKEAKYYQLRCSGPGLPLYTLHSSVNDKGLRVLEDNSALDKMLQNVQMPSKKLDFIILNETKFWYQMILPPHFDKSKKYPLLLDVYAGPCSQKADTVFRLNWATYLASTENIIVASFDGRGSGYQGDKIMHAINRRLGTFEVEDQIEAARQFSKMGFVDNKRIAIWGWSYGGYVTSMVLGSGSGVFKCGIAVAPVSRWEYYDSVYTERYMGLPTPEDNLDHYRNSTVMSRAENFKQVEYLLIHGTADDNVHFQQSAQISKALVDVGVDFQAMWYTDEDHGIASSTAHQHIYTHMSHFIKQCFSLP

Structure (SMILES)	half-life [1] [h]	EC50 [2] [nM]	remaining at 12 h [4] [%]	Retention_time [8] [min]	Activity (Mus musculus [9]) [mmol/L]	Activity (Mus musculus [10]) [mmol/L]	Activity (Mus musculus [11]) [mmol/L]	Activity (Mus musculus [12]) [mmol/L]	remaining at 96 h [13] [%]	Activity (Mus musculus [14]) [mmol/L]	remaining at 72 h [15] [%]	remaining at 24 h [16] [%]	remaining at 48 h [17] [%]	Activity (Mus musculus [18]) [mmol/L]	Activity (Mus musculus [19]) [mmol/L]	Activity (Mus musculus [20]) [mmol/L]	Activity (Mus musculus [21]) [mmol/L]	Activity (Mus musculus [22]) [mmol/L]	other results
CC[C@H](C)[C@H](NC(=O)[C@H](Cc1ccccc1)NC(=O)[C@H](CCC(=O)O)NC(=O)[C@H](CCCCN)NC(=O)[C@H](C)NC(=O)[C@H](C)NC(=O)[C@H](CCC(N)=O)NC(=O)CNC(=O)[C@H](CCC(=O)O)NC(=O)[C@H](CC(C)C)NC(=O)[C@H](Cc1ccc(O)cc1)NC(=O)[C@H](CO)NC(=O)[C@H](CO)NC(=O)[C@@H](NC(=O)[C@H](CC(=O)O)NC(=O)[C@H](CO)NC(=O)[C@@H](NC(=O)[C@H](Cc1ccccc1)NC(=O)[C@@H](NC(=O)CCNC(=O)[C@H](CCC(=O)O)NC(=O)[C@H](C)NC(=O)[C@@H](N)Cc1cnc[nH]1)[C@@H](C)O)[C@@H](C)O)C(C)C)C(=O)N[C@@H](C)C(=O)N[C@@H](Cc1c[nH]c2ccccc12)C(=O)N[C@@H](CC(C)C)C(=O)N[C@H](C(=O)N[C@@H](CCCCN)C(=O)NCC(=O)N[C@@H](CCCNC(=N)N)C(N)=O)C(C)C	2.39	0.0636	7.5	14.566															remaining at 8 h [3]: 14.9%; remaining at 1 h [5]: 74.8%; remaining at 2 h [6]: 57.5%; remaining at 4 h [7]: 34.8%
CC[C@H](C)[C@H](NC(=O)[C@H](Cc1ccccc1)NC(=O)[C@H](CCC(=O)O)NC(=O)[C@H](CCCCN)NC(=O)[C@H](C)NC(=O)[C@H](C)NC(=O)[C@H](CCC(N)=O)NC(=O)CNC(=O)[C@H](CCC(=O)O)NC(=O)[C@H](CC(C)C)NC(=O)[C@H](Cc1ccc(O)cc1)NC(=O)[C@H](CO)NC(=O)[C@H](CO)NC(=O)[C@@H](NC(=O)[C@H](CC(=O)O)NC(=O)[C@H](CO)NC(=O)[C@@H](NC(=O)[C@H](Cc1ccccc1)NC(=O)[C@@H](NC(=O)CNC(=O)[C@H](CCC(=O)O)NC(=O)[C@H]1CCC[C@@H]1NC(=O)[C@@H](N)Cc1cnc[nH]1)[C@@H](C)O)[C@@H](C)O)C(C)C)C(=O)N[C@@H](C)C(=O)N[C@@H](Cc1c[nH]c2ccccc12)C(=O)N[C@@H](CC(C)C)C(=O)N[C@H](C(=O)N[C@@H](CCCCN)C(=O)NCC(=O)N[C@@H](CCCNC(=N)N)C(N)=O)C(C)C	> 96	0.0766	100	13.997	7	6.2	14.8	15.9	100	11.5	100	100	100	8.7	9.1	11.4	19.2	22.8	
CC[C@H](C)[C@H](NC(=O)[C@H](Cc1ccccc1)NC(=O)[C@H](CCC(=O)O)NC(=O)[C@H](CCCCN)NC(=O)[C@H](C)NC(=O)[C@H](C)NC(=O)[C@H](CCC(N)=O)NC(=O)CNC(=O)[C@H](CCC(=O)O)NC(=O)[C@H](CC(C)C)NC(=O)[C@H](Cc1ccc(O)cc1)NC(=O)[C@H](CO)NC(=O)[C@H](CO)NC(=O)[C@@H](NC(=O)[C@H](CC(=O)O)NC(=O)[C@H](CO)NC(=O)[C@@H](NC(=O)[C@H](Cc1ccccc1)NC(=O)[C@@H](NC(=O)CNC(=O)[C@H](CCC(=O)O)NC(=O)[C@H](C)CNC(=O)[C@@H](N)Cc1cnc[nH]1)[C@@H](C)O)[C@@H](C)O)C(C)C)C(=O)N[C@@H](C)C(=O)N[C@@H](Cc1c[nH]c2ccccc12)C(=O)N[C@@H](CC(C)C)C(=O)N[C@H](C(=O)N[C@@H](CCCCN)C(=O)NCC(=O)N[C@@H](CCCNC(=N)N)C(N)=O)C(C)C					6.1	5.4	13.5	16.6		10.8				7.8	6.9	8.1	16.5	23.4	
CC[C@H](C)[C@H](NC(=O)[C@H](Cc1ccccc1)NC(=O)[C@H](CCC(=O)O)NC(=O)[C@H](CCCCN)NC(=O)[C@H](C)NC(=O)[C@H](C)NC(=O)[C@H](CCC(N)=O)NC(=O)CNC(=O)[C@H](CCC(=O)O)NC(=O)[C@H](CC(C)C)NC(=O)[C@H](Cc1ccc(O)cc1)NC(=O)[C@H](CO)NC(=O)[C@H](CO)NC(=O)[C@@H](NC(=O)[C@H](CC(=O)O)NC(=O)[C@H](CO)NC(=O)[C@@H](NC(=O)[C@H](Cc1ccccc1)NC(=O)[C@@H](NC(=O)CNC(=O)[C@H](CCC(=O)O)NC(=O)C1(NC(=O)[C@@H](N)Cc2cnc[nH]2)CC1)[C@@H](C)O)[C@@H](C)O)C(C)C)C(=O)N[C@@H](C)C(=O)N[C@@H](Cc1c[nH]c2ccccc12)C(=O)N[C@@H](CC(C)C)C(=O)N[C@H](C(=O)N[C@@H](CCCCN)C(=O)NCC(=O)N[C@@H](CCCNC(=N)N)C(N)=O)C(C)C [listing 1 of 2 here]	> 96		100	13.842					100		100	100	100						EC50 ([2]; hek293): 0.0284 nM
CC[C@H](C)[C@H](NC(=O)[C@H](Cc1ccccc1)NC(=O)[C@H](CCC(=O)O)NC(=O)[C@H](CCCCN)NC(=O)[C@H](C)NC(=O)[C@H](C)NC(=O)[C@H](CCC(N)=O)NC(=O)CNC(=O)[C@H](CCC(=O)O)NC(=O)[C@H](CC(C)C)NC(=O)[C@H](Cc1ccc(O)cc1)NC(=O)[C@H](CO)NC(=O)[C@H](CO)NC(=O)[C@@H](NC(=O)[C@H](CC(=O)O)NC(=O)[C@H](CO)NC(=O)[C@@H](NC(=O)[C@H](Cc1ccccc1)NC(=O)[C@@H](NC(=O)CNC(=O)[C@H](CCC(=O)O)NC(=O)C1(NC(=O)[C@@H](N)Cc2cnc[nH]2)CC1)[C@@H](C)O)[C@@H](C)O)C(C)C)C(=O)N[C@@H](C)C(=O)N[C@@H](Cc1c[nH]c2ccccc12)C(=O)N[C@@H](CC(C)C)C(=O)N[C@H](C(=O)N[C@@H](CCCCN)C(=O)NCC(=O)N[C@@H](CCCNC(=N)N)C(N)=O)C(C)C [listing 2 of 2 here]					7.5	5.9	12.9	17.2		13.8				7.1	6.5	10.8	19.8	21.2	
